Measured values reported in patent publication US8044067B2, “Isoquinolines as IGF-1R inhibitors” (Analytecon S.A., priority 2005, dated 2011).

Key:
[1] = target: T1, IGF-1 receptor (Homo sapiens, UniProt P08069); test: Inhibition of the phosphorylation of the IGF-1 receptor in MCF-7 cells (immunoblotting for phospho-IGF-1R Y1135/1136); type: cell-based; settings: MCF-7 cells serum starved 20 hours, treated 3 hours, stimulated with 10 nM IGF-1 for 5 minutes
T1 construct: endogenous in cells; host or cells: MCF-7
T1 sequence (P08069 741-1367 limits assumed): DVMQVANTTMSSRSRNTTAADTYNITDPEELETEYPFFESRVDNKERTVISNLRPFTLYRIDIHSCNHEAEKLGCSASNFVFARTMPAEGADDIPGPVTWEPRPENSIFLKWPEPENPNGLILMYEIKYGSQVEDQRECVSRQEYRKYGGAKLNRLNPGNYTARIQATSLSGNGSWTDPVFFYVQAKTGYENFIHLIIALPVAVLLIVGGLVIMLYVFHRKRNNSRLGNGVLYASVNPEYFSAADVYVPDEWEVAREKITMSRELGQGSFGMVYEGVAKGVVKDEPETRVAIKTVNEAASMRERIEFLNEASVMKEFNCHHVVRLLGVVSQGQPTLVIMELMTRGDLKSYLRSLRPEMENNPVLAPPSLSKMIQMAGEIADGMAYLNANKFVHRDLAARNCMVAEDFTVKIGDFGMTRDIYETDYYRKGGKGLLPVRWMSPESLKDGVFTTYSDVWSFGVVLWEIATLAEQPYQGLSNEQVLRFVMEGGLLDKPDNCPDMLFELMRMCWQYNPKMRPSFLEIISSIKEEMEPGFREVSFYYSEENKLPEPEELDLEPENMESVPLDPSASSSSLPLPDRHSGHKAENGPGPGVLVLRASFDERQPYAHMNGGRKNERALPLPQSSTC
T1 sequence (P08069 31-736 limits assumed): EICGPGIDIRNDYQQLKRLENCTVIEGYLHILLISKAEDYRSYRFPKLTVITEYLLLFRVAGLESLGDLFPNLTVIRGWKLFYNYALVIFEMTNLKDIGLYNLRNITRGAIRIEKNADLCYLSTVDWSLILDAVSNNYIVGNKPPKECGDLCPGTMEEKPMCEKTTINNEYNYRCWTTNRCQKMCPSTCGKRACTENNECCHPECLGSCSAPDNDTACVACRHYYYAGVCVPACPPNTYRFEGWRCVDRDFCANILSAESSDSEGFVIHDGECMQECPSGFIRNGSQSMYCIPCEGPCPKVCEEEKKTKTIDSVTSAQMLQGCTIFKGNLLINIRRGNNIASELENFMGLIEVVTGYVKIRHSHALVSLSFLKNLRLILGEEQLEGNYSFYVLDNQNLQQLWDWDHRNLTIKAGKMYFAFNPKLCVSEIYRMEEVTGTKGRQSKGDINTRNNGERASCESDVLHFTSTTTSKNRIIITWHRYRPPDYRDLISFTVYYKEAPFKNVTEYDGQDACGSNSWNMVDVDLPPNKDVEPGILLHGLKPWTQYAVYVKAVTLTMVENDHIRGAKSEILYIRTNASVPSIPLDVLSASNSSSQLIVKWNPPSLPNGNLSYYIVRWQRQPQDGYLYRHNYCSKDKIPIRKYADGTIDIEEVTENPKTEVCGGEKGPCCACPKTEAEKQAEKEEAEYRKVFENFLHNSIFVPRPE
Experimental: MCF-7 cells were serum starved for 20 hours, treated with compound 15 for 3 hours and finally stimulated with 10 nM IGF-1 for 5 minutes. The cells were lyzed and the lysates analysed by SDS-PAGE and immunoblotting for phospho-IGF-1R is (Y1135/1136).

[2] = test system: MAPK (Erk1/2); test: Inhibition of the phosphorylation of MAPK in DU-145 cells (immunoblotting for phospho-MAPK); type: cell-based; settings: DU-145 cells (prostate cancer), incubated over night in serum free medium, IGF1 50 nM for 15 minutes
Experimental: DU-145 cells (prostate cancer) were incubated over night with compound 15 in serum free medium. After stimulation for 15 minutes with IGF1 (50 nM), the cells were lyzed and the lysates analysed by immunoblotting for phospho-MAPK.

[3] = test system: insulin receptor substrate 1 (IRS-1); test: Inhibition of the phosphorylation of insulin receptor substrate 1 (IRS-1) in MF-55 cells; type: cell-based; settings: MF-55 cells (malignant melanoma), 100 ng/ml for one hour, IGF-1 50 ng/ml for 5 minutes
Experimental: MF-55 cells (malignant melanoma) were starved for 20 hours, after which half of the cell mass was incubated with racemic compound 15 (100 ng/ml) for one hour. After activation with IGF-1 (50 ng/ml) for 5 minutes, the two cell samples were lyzed in a special buffer (Upstate Ltd., Dundee, UK) that disrupts the cell membrane as well as the nucleus envelope. After removal of cell debris by centrifugation, the supernatants were analyzed for phosphorylated IRS-1 by Upstate Ltd. The presence of racemic compound 15 lowered the amount of phosphorylated IRS-1 with 20% compared to control. By blocking the function of the IGF-1 receptor, the phosphorylation of the insulin receptor substrate 1 is inhibited.

melting point [°C]	SMILES	IC50 [2] [nM]	also measured
–	COc1ccc2c(c1O)CN(C)C(=O)C2c1cc(OC)c(OC)c(OC)c1 (single isomer, unassigned; (+)) [Compound 15, (+)-2-methyl-4-(3,4,5-trimethoxyphenyl)-8-hydroxy-7-methoxy-1,4-dihydro-3(2H)-isoquinolinone]	~300	IC50 [1]: ~1000 nM
137 to 139	COc1cc(OC)cc(C2C(=O)N(C)Cc3cc(OC)ccc32)c1 (stereo not shown) [Compound 13, 2-methyl-4-(3,5-dimethoxyphenyl)-7-methoxy-1,4-dihydro-3(2H)-isoquinolinone]	–	–
148 to 149	COc1cc(C2C(=O)N(C)Cc3cc4c(cc32)OCCO4)cc(OC)c1OC (stereo not shown) [Compound 9, 2-methyl-4-(3,4,5-trimethoxyphenyl)-6,7-ethylenedioxy-1,4-dihydro-3(2H)-isoquinolinone]	–	–
164 to 167	COc1ccc2c(c1)CN(N)C(=O)C2c1cc(OC)c(OC)c(OC)c1.Cl (stereo not shown)	–	–
–	COc1cc([C@@H]2c3cc4c(cc3[C@H](O)[C@H]3COC(=O)[C@@H]23)OCO4)cc(OC)c1OC [Picropodophyllin, reference compound]	~5000	–
–	COc1ccc2c(c1O)CN(C)C(=O)C2c1cc(OC)c(OC)c(OC)c1 (racemic) [racemic compound 15, 2-methyl-4-(3,4,5-trimethoxyphenyl)-8-hydroxy-7-methoxy-1,4-dihydro-3(2H)-isoquinolinone]	–	lowering of the amount of phosphorylated IRS-1 compared to control [3]: 20%
